Results from article PMC7795729 (International Journal of Molecular Sciences, 2020).

How the values were obtained:
[1] = tested on: MCF-7 (breast cancer) cells; conditions: for IC50: read-out: IC50, MCF-7 cell viability, MTT, dose-response 1, 2.5, 5, 10, 20 and 25 µM, 24 h, triplicates, n = 3
Description: (§1) MCF-7 cells and SH-SY5Y cells were maintained in a culture flask (25 cm^2) with full growth medium DMEM supplemented with 10% FBS and penicillin and streptomycin (final concentration of 100 U/mL and 0.1 mg/mL, respectively) were kept in an incubator at 37 °C and 5% CO2. In the culture flask, the medium was changed at least twice a week, while trypsinization was done at least once a week. Trypsinization was made when there was more than 80% confluence of the monolayer and cell passages used were lower than 35.
(§2) For cytotoxicity evaluation, MCF-7 cells were seeded in 48-well plates at a density of 25 × 10^4 cells per well in a final volume of 250 µL of culture medium. Cells were given 24 h to attach before they were incubated with the compounds in the study. […] H2O and DMSO were used in control, with the volume added being the one used for each concentration.
The MTT assay can be used to assess the cell’s metabolic activity. MTT, a water-soluble compound, is reduced by the complex II of the mitochondrial respiratory chain to a water-insoluble blue formazan product. Only viable cells can metabolize MTT, so the metabolic activity is proportional to the quantity of formazans produced). After a 24 h incubation with the compounds in the study at 37 °C with 5% CO2, the cells were retrieved from the incubator and the medium was discarded. A previously warmed medium with MTT (0.5 mg/mL) was added (200 μL per well) and cells were maintained for 3 h at 37 °C and 5% CO2. Then the medium was aspirated again and DMSO (200 μL) was added to cause cellular lysis and solubilize the formazan crystals. The complete dissolution of the crystals was obtained by putting the plates on a shaking platform for 15 min, protected from light. The absorbance was read at 570 nm in a microplate reader (BioTeK Model Synergy HT, Winooski, VT, USA). Results were expressed as percentage of control cells.

SH-SY5Y cells = experiment: Cell count analysis (Lionheart FX), SH-SY5Y cells; assay type: cell-based, human; conditions: SH-SY5Y, 1, 2.5, 5 and 10 µM, 24 h incubation, n = 1
[2] = target: T1, acetylcholinesterase (AChE from the electric eel) (Electrophorus electricus, UniProt O42275); experiment: AChE in vitro inhibition assay (Ellman's method); assay type: biochemical
T1 construct: purchased Sigma-Aldrich
T1 sequence (O42275 24-633): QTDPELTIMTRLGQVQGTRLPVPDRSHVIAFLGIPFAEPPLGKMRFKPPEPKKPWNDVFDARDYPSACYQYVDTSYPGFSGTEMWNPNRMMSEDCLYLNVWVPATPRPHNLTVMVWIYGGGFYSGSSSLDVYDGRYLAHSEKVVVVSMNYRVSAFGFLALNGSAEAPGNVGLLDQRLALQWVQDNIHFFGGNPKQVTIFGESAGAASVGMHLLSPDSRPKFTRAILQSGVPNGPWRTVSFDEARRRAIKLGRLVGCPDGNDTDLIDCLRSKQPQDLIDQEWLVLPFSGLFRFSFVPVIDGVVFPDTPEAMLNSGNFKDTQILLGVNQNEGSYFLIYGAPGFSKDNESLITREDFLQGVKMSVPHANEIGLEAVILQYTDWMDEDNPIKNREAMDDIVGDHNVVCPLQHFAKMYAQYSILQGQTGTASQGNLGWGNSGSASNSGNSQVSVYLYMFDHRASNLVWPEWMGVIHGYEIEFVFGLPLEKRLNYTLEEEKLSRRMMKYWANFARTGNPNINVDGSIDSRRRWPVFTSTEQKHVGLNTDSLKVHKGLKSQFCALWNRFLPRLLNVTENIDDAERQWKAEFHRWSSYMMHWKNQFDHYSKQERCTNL
Description: Apart from its main function, this enzyme can efficiently hydrolyze a sulfur analogue of acetylcholine–acetylthiocholine. The products of this reaction are acetate and thiocholine, with the latter reacting with the highly reactive DNTB ion, generating a 5-thio-2-nitrobenzoate anion that has a yellow color and it can be detected by measuring the increase of absorbance at 412 nm. 3 mL of assay medium (phosphate buffer pH 7.4 + 150 µL DNTB 0.01 M + 30 µL AChE 2.0 units/mL) was put into cuvettes. The positive control was incubated at 37 °C for 15 min and then was added 150 µL of substrate (acetylthiocholine 0.01 M). […] After the addition of substrate to the assay medium, it was measured the increase in absorbance at 412 nm for 30 s intervals for 5 min (300 s) at 37 °C.
The absorbance was measured in the JENWAY 6300 Spectrophotometer. All conditions were made in triplicates. The value of the initial absorbance was subtracted to the value of the absorbance at 300 s and that was considered as the biological activity.

MCF-7 cells [3] = experiment: Analysis of drug interactions (Chou-Talalay, CompuSyn); assay type: cell-based, human; conditions: n = 3
Description: To quantify the interaction of Tacrine and MAP in the conjugate, the dose-effect curves were estimated by the unified theory, introduced by Chou and Talalay using CompuSyn software (ComboSyn, Inc., New York, NY, USA). The dose was plotted on the y-axis as a function of effect level (Fa) on the x-axis to assess the drugs’ behavior. Experiments were conducted in triplicate (n = 3) with three replications.

MCF-7 cells [4] = experiment: Cell count analysis (Lionheart FX), MCF-7 cells; assay type: cell-based, human; conditions: 24 h incubation, n = 1
Description: as §2
(§3) After the treatments, cell morphology and growth were assessed by the contrast phase microscope Lionheart FX (Biotech, VT, USA) with the use of Gen5 software (Biotech, USA). The cell count of MCF-7 cells was assessed by Lionheart FX (Biotech, USA) using Gen5 software (Biotech, USA).

MCF-7 cells [5] = experiment: Cell morphology visualization (phase contrast, Lionheart FX), MCF-7 cells; assay type: cell-based, human; conditions: 24 h incubation; Tacrine all concentrations tested; MAP 5, 10, 20 and 25 μM; conjugate higher concentrations
Description: as §2, §3

[6] = tested on: SH-SY5Y (neuroblastoma) cells; experiment: MTT reduction assay, SH-SY5Y cells; assay type: cell-based, human
Description: as §1
Cells were given 24 h to attach before they were incubated with the compounds in the study. The cells were treated with different concentrations (1, 2.5, 5, and 10 µM) of Tacrine, MAP, and Tacrine-MAP for 24 h with a final volume per well of 200 μL of complete medium. H2O and DMSO were used in control, with the volume added being the one used for each concentration. After the period of incubation, the MTT reduction was performed in both cell lines.
The MTT assay can be used to assess the cell’s metabolic activity. […] Only viable cells can metabolize MTT, so the metabolic activity is proportional to the quantity of formazans produced). […] The absorbance was read at 570 nm in a microplate reader (BioTeK Model Synergy HT, Winooski, VT, USA). Results were expressed as percentage of control cells.

[7] = cellular uptake kinetics; cited from earlier work
Description: In view of the above, we decided to explore how the coupling of Tacrine with the cell-penetrating peptide (CPP) MAP might enhance its anti-cancer effect. CPPs are considered versatile carriers due to their unique ability to transport a wide range of molecules such as proteins, nucleic acids, contrast agents, drugs, and promote their intracellular delivery with limited toxicity. […] MAP (named after “model amphipathic peptide”) is an artificial ...

[8] = tested on: breast tumor cells (MCF-7); conditions: cited from earlier work
Description: Drug combination is a strategy increasingly used in oncology because it allows taking advantage of the maximum therapeutic effect of two or more drugs, by combining different mechanisms of action, while reducing required doses and, consequently, side effects. Drug repurposing is another strategy that allows overcoming the disadvantages of the traditional development of novel anticancer drugs, by searching for new therapeutic uses for drugs already approved for other indications. This allows the reduction of costs related to the development of new drugs while promoting a faster route towards th ...

[9] = summary statement of the abstract

Q: For `CC(C)C[C@H](NC(=O)[C@H](C)NC(=O)[C@H](CCCCN)NC(=O)[C@H](CC(C)C)NC(=O)[C@H](C)NC(=O)[C@H](CC(C)C)NC(=O)[C@H](CCCCN)NC(=O)[C@H](CC(C)C)NC(=O)[C@H](C)NC(=O)[C@H](CC(C)C)NC(=O)[C@H](CCCCN)NC(=O)[C@@H](N)Cc1cn(CC(=O)Nc2c3c(nc4ccccc24)CCCC3)nn1)C(=O)N[C@@H](CCCCN)C(=O)N[C@@H](C)C(=O)N[C@@H](C)C(=O)N[C@@H](CC(C)C)C(=O)N[C@@H](CCCCN)C(=O)N[C@@H](CC(C)C)C(=O)N[C@@H](C)C(N)=O` [MAP-Tacrine conjugate], which IC50 [1] is on record?
A: 2730 nM

Q: And the “Toxicity to MCF-7 cells (in words)” value [1, 9]?
A: highly toxic

Q: And the “Cell count (in words)” value (SH-SY5Y cells)?
A: significantly decreased cell count

Q: What about the IC50 [2] of the same molecule?
A: 6070 nM

Q: What about the “Drug interaction of MAP and Tacrine in decreasing cell viability” value (MCF-7 cells [3]; higher doses) of the same molecule?
A: additive effect

Q: And the “Drug interaction of MAP and Tacrine in decreasing cell viability” value (MCF-7 cells [3]; lower doses of drug and peptide)?
A: synergistic effect

Q: And the “Cell count (in words)” value (MCF-7 cells [4]; MCF-7, 1, 2.5, 5 and 10 µM)?
A: significantly decreased cell count

Q: And the “Cell count (in words)” value (MCF-7 cells [4]; MCF-7, 20 and 25 µM)?
A: severe drop in cell count

Q: What about the “Morphological changes of MCF-7 cells vs control (in words)” value (MCF-7 cells [5]) of the same molecule?
A: cell damage observed was similar to that caused by MAP alone

Q: And the “Toxicity to SH-SY5Y cells (in words)” value [6, 9]?
A: highly toxic

Q: Which results are given for `CC(C)C[C@H](NC(=O)[C@H](C)NC(=O)[C@H](CCCCN)NC(=O)[C@H](CC(C)C)NC(=O)[C@H](C)NC(=O)[C@H](CC(C)C)NC(=O)[C@H](CCCCN)NC(=O)[C@H](CC(C)C)NC(=O)[C@H](C)NC(=O)[C@H](CC(C)C)NC(=O)[C@@H](N)CCCCN)C(=O)N[C@@H](CCCCN)C(=O)N[C@@H](C)C(=O)N[C@@H](C)C(=O)N[C@@H](CC(C)C)C(=O)N[C@@H](CCCCN)C(=O)N[C@@H](CC(C)C)C(=O)N[C@@H](C)C(N)=O` [MAP]?
A: IC50 [1]: 2720 nM; Cellular uptake among several CPP (in words) [7]: fastest cellular uptake

Q: Which results are given for `Nc1c2c(nc3ccccc13)CCCC2` [Tacrine]?
A: MTT reduction compared to control (in words) ([1]; MCF-7, 1, 2.5, 5 and 10 µM, 24 h incubation): no significant differences; Activity on MCF-7 cells (in words) ([8]; 50 µM, alone): antiproliferative activity; Cytotoxicity against MCF-7 cells in combination with 5-FU (in words) ([8]; combination with 5-Fluorouracil): increased the cytotoxicity; Cell count (in words) (SH-SY5Y cells): did not affect the number of cells in culture; Cell count (in words) (MCF-7 cells [4]; MCF-7, 1, 2.5, 5 and 10 µM): did not affect the number of cells in culture; Cell count (in words) (MCF-7 cells [4]; MCF-7, 20 and 25 µM): no significant effects; Morphological changes of MCF-7 cells vs control (in words) (MCF-7 cells [5]): No significant differences in cell morphology; MTT reduction compared to control (in words) ([6]; SH-SY5Y, 1, 2.5, 5 and 10 µM, 24 h incubation): no significant differences
